Several values for one entry are separate records, joined by “and”; a condition that tells them apart may be missing. Equal values may be shown once. Inconclusive results and toxic doses are left out. Rule as the data show it: active = T/C of 150% or more; inactive = T/C below 125%.
Test system: L1210 leukemia ip in BDF1 mice, survival T/C
Assay: NCI In Vivo Anticancer Drug Screen. Data for tumor model L1210 Leukemia (intraperitoneal) in B6D2F1 (BDF1) mice
Conditions: endpoint: mean survival time, higher = longer survival
Outline: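 Transplanted-tumor mice were given test agent; controls received vehicle only. Survival readings from the two groups were divided (treated over control).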

[1] = dose: 25.0 mg/kg/injection, schedule: Q04DX003 (ip), vehicle: saline
[2] = dose: 100.0 mg/kg/injection, schedule: Q01DX001 (ip), vehicle: Klucel (hydroxypropylcellulose) (HPC)
[3] = dose: 200.0 mg/kg/injection, schedule: Q01DX001 (ip), vehicle: Klucel (hydroxypropylcellulose) (HPC)
[4] = dose: 400.0 mg/kg/injection, schedule: Q01DX001 (ip), vehicle: Klucel (hydroxypropylcellulose) (HPC)
[5] = dose: 100.0 mg/kg/injection, schedule: Q04DX003 (ip), vehicle: saline with Tween-80
[6] = dose: 200.0 mg/kg/injection, schedule: Q04DX003 (ip), vehicle: saline with Tween-80
[7] = dose: 100.0 mg/kg/injection, schedule: Q04DX003 (ip), vehicle: saline
[8] = dose: 200.0 mg/kg/injection, schedule: Q04DX003 (ip), vehicle: saline
[9] = dose: 400.0 mg/kg/injection, schedule: Q04DX003 (ip), vehicle: saline
[10] = dose: 100.0 mg/kg/injection, schedule: Q04DX002 (ip), vehicle: Klucel (hydroxypropylcellulose) (HPC)
[11] = dose: 200.0 mg/kg/injection, schedule: Q04DX002 (ip), vehicle: Klucel (hydroxypropylcellulose) (HPC)
[12] = dose: 400.0 mg/kg/injection, schedule: Q04DX002 (ip), vehicle: Klucel (hydroxypropylcellulose) (HPC)
[13] = dose: 50.0 mg/kg/injection, schedule: Q01DX009 (ip), vehicle: saline
[14] = dose: 100.0 mg/kg/injection, schedule: Q01DX009 (ip), vehicle: saline

Measured: T/C

CCCNC1=C(N2CC2)C(=O)C(NCCC)=C(N2CC2)C1=O
inactive: dose: 0.09 mg/kg/injection, schedule: Q04DX003 (ip), vehicle: saline 96 % of control and 109 % of control | dose: 0.18 mg/kg/injection, schedule: Q04DX003 (ip), vehicle: saline 97 % of control and 106 % of control | dose: 0.37 mg/kg/injection, schedule: Q01DX001 (ip), vehicle: saline 108 % of control | dose: 0.37 mg/kg/injection, schedule: Q04DX003 (ip), vehicle: saline 100 % of control and 103 % of control | dose: 0.39 mg/kg/injection, schedule: Q01DX009 (ip), vehicle: saline 95 % of control and 102 % of control | dose: 0.75 mg/kg/injection, schedule: Q01DX001 (ip), vehicle: saline 108 % of control | dose: 0.75 mg/kg/injection, schedule: Q04DX003 (ip), vehicle: saline 105 % of control and 108 % of control | dose: 0.78 mg/kg/injection, schedule: Q01DX009 (ip), vehicle: saline 107 % of control and 118 % of control | dose: 1.5 mg/kg/injection, schedule: Q01DX001 (ip), vehicle: saline 117 % of control | dose: 1.5 mg/kg/injection, schedule: Q04DX003 (ip), vehicle: saline 100 % of control | dose: 1.56 mg/kg/injection, schedule: Q01DX009 (ip), vehicle: saline 107 % of control and 116 % of control | dose: 1.56 mg/kg/injection, schedule: Q04DX003 (ip), vehicle: saline 103 % of control | dose: 3.0 mg/kg/injection, schedule: Q01DX001 (ip), vehicle: saline 118 % of control | dose: 3.0 mg/kg/injection, schedule: Q04DX003 (ip), vehicle: saline 118 % of control and 120 % of control | dose: 3.12 mg/kg/injection, schedule: Q04DX003 (ip), vehicle: saline 93 % of control | dose: 6.0 mg/kg/injection, schedule: Q01DX001 (ip), vehicle: saline 90 % of control | dose: 6.25 mg/kg/injection, schedule: Q04DX003 (ip), vehicle: saline 98 % of control | dose: 12.0 mg/kg/injection, schedule: Q01DX001 (ip), vehicle: saline 110 % of control | dose: 12.5 mg/kg/injection, schedule: Q04DX003 (ip), vehicle: saline 115 % of control | [1] 113 % of control

CC1=C(c2ccccc2)C(c2ccccc2)=CC1=O
inactive: dose: 50.0 mg/kg/injection, schedule: Q01DX001 (ip), vehicle: carboxymethylcellulose (CMC) 95 % of control | dose: 100.0 mg/kg/injection, schedule: Q01DX001 (ip), vehicle: carboxymethylcellulose (CMC) 92 % of control | dose: 200.0 mg/kg/injection, schedule: Q01DX001 (ip), vehicle: carboxymethylcellulose (CMC) 92 % of control | dose: 400.0 mg/kg/injection, schedule: Q01DX001 (ip), vehicle: carboxymethylcellulose (CMC) 95 % of control

CCOC(=O)c1ccc(NCCC(=O)CBr)cc1
inactive: dose: 5.0 mg/kg/injection, schedule: Q01DX001 (ip), vehicle: carboxymethylcellulose (CMC) 97 % of control | dose: 10.0 mg/kg/injection, schedule: Q01DX001 (ip), vehicle: carboxymethylcellulose (CMC) 97 % of control | dose: 20.0 mg/kg/injection, schedule: Q01DX001 (ip), vehicle: carboxymethylcellulose (CMC) 92 % of control | dose: 40.0 mg/kg/injection, schedule: Q01DX001 (ip), vehicle: carboxymethylcellulose (CMC) 100 % of control

CCC(C(C)C)C1NC1C(C)C1CCC2C3CC=C4CC(OC(C)=O)CCC4(C)C3CCC12C (stereo unspecified)
inactive: dose: 100.0 mg/kg/injection, schedule: Q04DX003 (sc), vehicle: steriod suspending solution 105 % of control | dose: 200.0 mg/kg/injection, schedule: Q04DX003 (sc), vehicle: steriod suspending solution 103 % of control | dose: 400.0 mg/kg/injection, schedule: Q04DX003 (sc), vehicle: steriod suspending solution 97 % of control

O=C(COc1ccc(Cl)cc1C(=O)O)NCc1ccc(NC(=O)Nc2ccc(S(=O)(=O)F)cc2Cl)cc1
inactive: [2] 102 % of control | [3] 93 % of control | [4] 89 % of control

O=C(N=c1scc(-c2ccc(Br)cc2)n1-c1cccc2ccccc12)c1ccccc1F
inactive: dose: 25.0 mg/kg/injection, schedule: Q01DX009 (ip), vehicle: saline with Tween-80 89 % of control | dose: 50.0 mg/kg/injection, schedule: Q01DX009 (ip), vehicle: saline with Tween-80 87 % of control | dose: 100.0 mg/kg/injection, schedule: Q01DX009 (ip), vehicle: saline with Tween-80 93 % of control

CN(C)c1nc(=[N+](C)C)ss1
inactive: dose: 15.0 mg/kg/injection, schedule: Q01DX015 (ip), vehicle: saline 102 % of control | dose: 30.0 mg/kg/injection, schedule: Q01DX015 (ip), vehicle: saline 94 % of control | dose: 60.0 mg/kg/injection, schedule: Q01DX015 (ip), vehicle: saline 100 % of control | [5] 100 % of control | dose: 120.0 mg/kg/injection, schedule: Q01DX015 (ip), vehicle: saline 105 % of control | [6] 96 % of control

O=C(N/C=C/NC(=O)OC(=O)C(Cl)(Cl)Cl)OC(=O)C(Cl)(Cl)Cl
inactive: [7] 92 % of control | [8] 88 % of control | [9] 93 % of control

C/C(Cl)=C/CC1=C(O)c2ccccc2C(=O)C1=O
inactive: dose: 25.0 mg/kg/injection, schedule: Q01DX001 (ip), vehicle: water 104 % of control | dose: 50.0 mg/kg/injection, schedule: Q01DX001 (ip), vehicle: water 101 % of control | dose: 75.0 mg/kg/injection, schedule: Q01DX001 (ip), vehicle: water 97 % of control

Cc1nc(N(C)CC(=O)O)ncc1C(=O)O
inactive: [10] 91 % of control | [11] 91 % of control | [12] 94 % of control

S=C(Nc1ccccc1)Nc1ncn[nH]1
inactive: dose: 75.0 mg/kg/injection, schedule: Q01DX001 (ip), vehicle: carboxymethylcellulose (CMC) 95 % of control | dose: 150.0 mg/kg/injection, schedule: Q01DX001 (ip), vehicle: carboxymethylcellulose (CMC) 98 % of control | dose: 300.0 mg/kg/injection, schedule: Q01DX001 (ip), vehicle: carboxymethylcellulose (CMC) 88 % of control

OCC1OC(n2c(N3CCOCC3)nc3ccccc32)C(O)C1O (stereo unspecified)
inactive: dose: 100.0 mg/kg/injection, schedule: Q01DX001 (ip), vehicle: saline 115 % of control | dose: 200.0 mg/kg/injection, schedule: Q01DX001 (ip), vehicle: saline 97 % of control | dose: 400.0 mg/kg/injection, schedule: Q01DX001 (ip), vehicle: saline 96 % of control

Cc1ccc([N+](=O)[O-])cc1NC(=O)N(Cc1ccccc1)Cc1ccccc1
inactive: [10] 95 % of control | [11] 100 % of control | [12] 106 % of control

Cn1c(O)c(N)c(=O)n(C)c1=O
inactive: [13] 98 % of control | [14] 92 % of control

CCOC(=O)c1ccc(CCCCl)cc1
inactive: [2] 98 % of control | [3] 88 % of control | [4] 91 % of control

CC(C)C1(C(C)C)OCC(CO)O1 (stereo unspecified)
inactive: dose: 25.0 mg/kg/injection, schedule: Q01DX009 (ip), vehicle: saline 93 % of control | [1] 100 % of control | [13] 102 % of control | dose: 50.0 mg/kg/injection, schedule: Q04DX003 (ip), vehicle: saline 94 % of control | [14] 104 % of control | [7] 94 % of control | dose: 200.0 mg/kg/injection, schedule: Q01DX009 (ip), vehicle: saline 102 % of control | [8] 102 % of control | dose: 400.0 mg/kg/injection, schedule: Q01DX009 (ip), vehicle: saline 104 % of control | [9] 100 % of control

COc1cc(C(=O)C[n+]2ccccc2)ccc1O
inactive: [5] 93 % of control | [6] 93 % of control

Nc1ccnc(C(F)(F)F)n1
inactive: dose: 50.0 mg/kg/injection, schedule: Q01DX Z (ip), vehicle: methylcellulose (MC) 93 % of control | dose: 100.0 mg/kg/injection, schedule: Q01DX Z (ip), vehicle: methylcellulose (MC) 90 % of control

O=C1C2C3CC(c4ccccc43)C2N1S(=O)(=O)Cl (stereo unspecified)
inactive: [10] 105 % of control | [11] 105 % of control | [12] 105 % of control

CC(C)(C)OC(=O)c1c2ccccc2cc2ccccc12
inactive: dose: 100.0 mg/kg/injection, schedule: Q04DX002 (ip), vehicle: gum acacia 99 % of control | dose: 200.0 mg/kg/injection, schedule: Q04DX002 (ip), vehicle: gum acacia 101 % of control | dose: 400.0 mg/kg/injection, schedule: Q04DX002 (ip), vehicle: gum acacia 105 % of control
